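Step 1: Grow cells in 96-well plates. Step 2: Expose to compound for 48 hours at 5 concentrations. Step 3: Interpolate endpoints linearly; if unreached, use highest concentration. Here, GI50 denotes the concentration required for 50% inhibition of growth.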 Active and inactive are the calls of the source. No stated cut-off is given here; in the data, active = GI50 up to about 1.1 µM and inactive = higher.
Legend:
Test in all cases: DTP human tumour cell line panel, 48 h
SNB-75 = test system: SNB-75
SN12C = test system: SN12C
UO-31 = test system: UO-31
U-251 = test system: U-251
M14 = test system: M14
NCI-H226 = test system: NCI-H226
TK-10 = test system: TK-10
UACC-257 = test system: UACC-257
LOX IMVI = test system: LOX IMVI
CAKI-1 = test system: CAKI-1
COLO 205 = test system: COLO 205
OVCAR-8 = test system: OVCAR-8
SK-OV-3 = test system: SK-OV-3
EKVX = test system: EKVX
Malme-3M = test system: Malme-3M
HCT-15 = test system: HCT-15

SMILES | GI50 (SNB-75) | GI50 (SN12C) | GI50 (UO-31) | GI50 (U-251) | GI50 (M14) | GI50 (NCI-H226) | GI50 (TK-10) | GI50 (UACC-257) | GI50 (LOX IMVI) | GI50 (CAKI-1) | GI50 (COLO 205) | GI50 (OVCAR-8) | GI50 (SK-OV-3) | GI50 (EKVX) | GI50 (Malme-3M) | GI50 (HCT-15)
CC1=C(C(=O)Nc2ccc([N+](=O)[O-])cc2)C(c2ccc(N(C)C)cc2)C(C(=O)Nc2ccc([N+](=O)[O-])cc2)=C(C)N1 | 13.7 µM (inactive) | > 10 µM (inactive) | 21.5 µM (inactive) | 21.9 µM (inactive) | 16.9 µM (inactive) | 17.6 µM (inactive) | 32 µM (inactive) | 16.4 µM (inactive) | 9.04 µM (inactive) | 31.8 µM (inactive) | 15.4 µM (inactive) | 26.6 µM (inactive) | 23.4 µM (inactive) | 25.4 µM (inactive) | 23.3 µM (inactive) | 
CC1=NN(C(=O)Cc2ccccc2)C(=O)/C1=C\c1ccc(O)cc1 |  | > 100 µM (inactive) | > 100 µM (inactive) | > 100 µM (inactive) | > 100 µM (inactive) | > 100 µM (inactive) | > 100 µM (inactive) | > 100 µM (inactive) | > 100 µM (inactive) | > 100 µM (inactive) | > 100 µM (inactive) | > 100 µM (inactive) | > 100 µM (inactive) | > 100 µM (inactive) | > 100 µM (inactive) | > 100 µM
CC(C)(Oc1ccc2c(=O)cc(-c3ccccc3)oc2c1)C(=O)Nc1c(Cl)cccc1Cl |  |  | 9.66 µM (inactive) | > 100 µM (inactive) | > 100 µM (inactive) |  | > 100 µM (inactive) | > 100 µM (inactive) | > 100 µM (inactive) | > 100 µM (inactive) |  | 29.4 µM (inactive) | > 100 µM (inactive) | > 100 µM (inactive) | > 100 µM (inactive) | 76.7 µM
NNC(=S)N/N=C(\c1nc2ccc(Cl)cc2nc1O)C(O)c1ccc(Cl)cc1Cl (stereo not drawn) | > 100 µM (inactive) | > 100 µM (inactive) | > 100 µM (inactive) | > 100 µM (inactive) | > 100 µM (inactive) | > 100 µM (inactive) | > 100 µM (inactive) | > 100 µM (inactive) | > 100 µM (inactive) | > 100 µM (inactive) | > 100 µM (inactive) | > 100 µM (inactive) | > 100 µM (inactive) | > 100 µM (inactive) | > 100 µM (inactive) | > 100 µM
O=C(O)CN(c1ccc(Cl)cc1)S(=O)(=O)c1ccccc1 | > 100 µM (inactive) | > 100 µM (inactive) | > 100 µM (inactive) | > 100 µM (inactive) | > 100 µM (inactive) | > 100 µM (inactive) | > 100 µM (inactive) | > 100 µM (inactive) | > 100 µM (inactive) | > 100 µM (inactive) | 51.2 µM (inactive) | > 100 µM (inactive) | > 100 µM (inactive) | > 100 µM (inactive) | > 100 µM (inactive) | > 100 µM
CC1=C(C(=O)Nc2cccc(C(F)(F)F)c2)C(c2ccccc2F)C(C(=O)Nc2cccc(C(F)(F)F)c2)=C(C)N1 | 9.57 µM (inactive) | 7.96 µM (inactive) | 4.83 µM (inactive) | 8.69 µM (inactive) | 4.59 µM (inactive) | 4.38 µM (inactive) | 8.26 µM (inactive) | 8.65 µM (inactive) | 5.37 µM (inactive) | 8.57 µM (inactive) | 4.82 µM (inactive) | 9.62 µM (inactive) | 10.4 µM (inactive) | 3.94 µM (inactive) | 7.08 µM (inactive) | 
COC(=O)C(=O)C(C(=O)C1=NS(=O)(=O)c2cc(S(N)(=O)=O)c(Cl)cc2N1)c1nc2ccc(C(=O)c3ccccc3)cc2nc1O (stereo not drawn) |  | > 100 µM (inactive) | 79.4 µM (inactive) | > 100 µM (inactive) | > 100 µM (inactive) | > 100 µM (inactive) | > 100 µM (inactive) | 71.6 µM (inactive) |  | 57.8 µM (inactive) | > 100 µM (inactive) | 59 µM (inactive) |  | > 100 µM (inactive) | > 100 µM (inactive) | > 100 µM
COC(=O)C(C(=O)C(=O)Nc1cccc(OC)c1)c1cnc2ccccc2n1 (stereo not drawn) | > 100 µM (inactive) | > 100 µM (inactive) | > 100 µM (inactive) | > 100 µM (inactive) | > 100 µM (inactive) | > 100 µM (inactive) | > 100 µM (inactive) | > 100 µM (inactive) | > 100 µM (inactive) | > 100 µM (inactive) | > 100 µM (inactive) | > 100 µM (inactive) | > 100 µM (inactive) | > 100 µM (inactive) | > 100 µM (inactive) | > 100 µM
Clc1ccc(CN2COc3c(cc(Cl)c4cccnc34)C2)cc1 | 3.4 µM (inactive) | 4.23 µM (inactive) | 0.649 µM (active) | 2.32 µM (inactive) | 1.68 µM (inactive) | 4.06 µM (inactive) | 4.57 µM (inactive) | 2.84 µM (inactive) | 1.38 µM (inactive) | 2.62 µM (inactive) | 16.2 µM (inactive) | 2.04 µM (inactive) | 2.77 µM (inactive) | 4.7 µM (inactive) | 2.34 µM (inactive) | 0.456 µM
Nc1nc2c(nnn2C2C=C(CO)C(O)C2O)c(=O)[nH]1 (stereo not drawn) | > 100 µM (inactive) | 94.4 µM (inactive) | > 100 µM (inactive) | > 100 µM (inactive) | > 100 µM (inactive) | > 100 µM (inactive) | > 100 µM (inactive) | > 100 µM (inactive) | 27.9 µM (inactive) | 57.7 µM (inactive) | > 100 µM (inactive) | > 100 µM (inactive) | > 100 µM (inactive) | > 100 µM (inactive) | 95.7 µM (inactive) | > 100 µM
CCN(CC)c1c(C(=O)/C=C/c2ccc(OC)cc2)c(-c2ccccc2)nn(C)c1=O |  | 21 µM (inactive) | 36.6 µM (inactive) | 13.5 µM (inactive) |  | 16.1 µM (inactive) | 32.8 µM (inactive) | 19.6 µM (inactive) | 14.9 µM (inactive) | 29.8 µM (inactive) | 3.87 µM (inactive) | 22.2 µM (inactive) | 36 µM (inactive) | 8 µM (inactive) | 15.1 µM (inactive) | 
CO/C=C/c1cc2c(cc1C(OC)OC)OCO2 | 16.4 µM (inactive) | 79.3 µM (inactive) | 26.5 µM (inactive) | 53.3 µM (inactive) | 31.1 µM (inactive) | 57 µM (inactive) | 55 µM (inactive) | > 100 µM (inactive) |  | 29.5 µM (inactive) |  | > 100 µM (inactive) | 26.1 µM (inactive) | 69.7 µM (inactive) | 53.6 µM (inactive) | 
CN1CC(=O)N(C)c2ncn(Cc3ccccc3)c2C1=O | > 100 µM (inactive) | > 100 µM (inactive) | > 100 µM (inactive) | > 100 µM (inactive) | > 100 µM (inactive) |  | > 100 µM (inactive) |  | > 100 µM (inactive) |  | > 100 µM (inactive) | > 100 µM (inactive) | > 100 µM (inactive) | > 100 µM (inactive) | > 100 µM (inactive) | > 100 µM
N#CC(NNC(=O)Cc1ccccc1)c1cccc(O)c1 (stereo not drawn) | > 100 µM (inactive) | > 100 µM (inactive) | > 100 µM (inactive) | > 100 µM (inactive) | > 100 µM (inactive) | > 100 µM (inactive) | > 100 µM (inactive) | > 100 µM (inactive) | > 100 µM (inactive) | > 100 µM (inactive) | > 100 µM (inactive) | > 100 µM (inactive) | > 100 µM (inactive) |  | > 100 µM (inactive) | > 100 µM
c1ccc(-c2[nH]c(-c3ccccc3)c(-c3cnccn3)c2-c2cnccn2)cc1 | 31.9 µM (inactive) | > 100 µM (inactive) | > 100 µM (inactive) | > 100 µM (inactive) | > 100 µM (inactive) | > 100 µM (inactive) | > 100 µM (inactive) | > 100 µM (inactive) | > 100 µM (inactive) | > 100 µM (inactive) | > 100 µM (inactive) | > 100 µM (inactive) | > 100 µM (inactive) | > 100 µM (inactive) | > 100 µM (inactive) | > 100 µM
COC(=O)C1C(O)CC(c2ccccn2)N(Cc2ccccc2)C1c1ccccn1 (stereo not drawn) | > 100 µM (inactive) | > 100 µM (inactive) | > 100 µM (inactive) | > 100 µM (inactive) | > 100 µM (inactive) | > 100 µM (inactive) | > 100 µM (inactive) | > 100 µM (inactive) | > 100 µM (inactive) | > 100 µM (inactive) | > 100 µM (inactive) | > 100 µM (inactive) | > 100 µM (inactive) | > 100 µM (inactive) | > 100 µM (inactive) | > 100 µM
COC(=O)C1=C(c2cc(OC)c(OC)c(OC)c2)OC(c2cc(OC)c(OC)c(OC)c2)C1COC(C)=O (stereo not drawn) | 74.6 µM (inactive) | 85.1 µM (inactive) | 27.2 µM (inactive) | 51.6 µM (inactive) | 41 µM (inactive) | 46.1 µM (inactive) | 42.4 µM (inactive) | 95.7 µM (inactive) | 20.8 µM (inactive) | > 100 µM (inactive) | 18.2 µM (inactive) | 59.7 µM (inactive) | 44.8 µM (inactive) | > 100 µM (inactive) | > 100 µM (inactive) | 26.9 µM
CCc1cccc(CC)c1NC(=O)/C(Cl)=C(/Cl)C(=O)O | 43.9 µM (inactive) | 31.1 µM (inactive) | 32.4 µM (inactive) | > 58.2 µM (inactive) | 17.1 µM (inactive) | > 100 µM (inactive) | 34 µM (inactive) | 24.1 µM (inactive) | > 100 µM (inactive) | 16.8 µM (inactive) | 13.9 µM (inactive) | 18.4 µM (inactive) | > 100 µM (inactive) | > 56.6 µM (inactive) | 19 µM (inactive) | 19.4 µM

— ChEMBL document CHEMBL1201862, “PubChem BioAssay data set” (2004)
